assay: Drug transport in MDCK2 cells assessed as transcytosis across epithelial monolayers at 37 degree C measured after 3 hrs by transwell assay; format: ADME, cell-based, Canis lupus familiaris; conditions: dog, mdck-ii

| Drug transport | Structure (SMILES) |
| --- | --- |
| 11.4% | CCCCCCCCCCCCC/C=C\[C@@H](O)[C@H](/C=N\OCC(=O)NCCCC[C@@H](NC(=O)CNC(=O)[C@@H](CO)NC(=O)CNC(=O)[C@@H](CCCNC(=N)N)NC(=O)CNC(=O)[C@@H](Cc1ccc(O)cc1)NC(=O)CNC(=O)[C@@H](CO)NC(=O)CNC(=O)[C@@H](CCCCNC(=O)CCCC[C@@H]1SC[C@@H]2NC(=O)N[C@@H]21)NC(=O)[C@H](N)Cc1cn(CCCCCCNC(=O)c2ccc(-c3c4ccc(=N)c(S(=O)(=O)O)c-4oc4c(S(=O)(=O)O)c(N)ccc34)c(C(=O)O)c2)nn1)C(N)=O)NC(=O)CCCCC |
| 5.8% | CCCCCCCCCCCCCC=CC=C(C=NOCC(=O)NCCCC[C@@H](NC(=O)CNC(=O)[C@@H](CO)NC(=O)CNC(=O)[C@@H](CCCNC(=N)N)NC(=O)CNC(=O)[C@@H](Cc1ccc(O)cc1)NC(=O)CNC(=O)[C@@H](CO)NC(=O)CNC(=O)[C@@H](CCCCNC(=O)CCCC[C@@H]1SC[C@@H]2NC(=O)N[C@@H]21)NC(=O)[C@H](N)Cc1cn(CCCCCCNC(=O)c2ccc(-c3c4ccc(=N)c(S(=O)(=O)O)c-4oc4c(S(=O)(=O)O)c(N)ccc34)c(C(=O)O)c2)nn1)C(N)=O)NC(=O)CCCCC |

| Structure (SMILES) | Drug transport |
| --- | --- |
| N=C(N)NCCC[C@@H](NC(=O)CNC(=O)[C@@H](Cc1ccc(O)cc1)NC(=O)CNC(=O)[C@@H](CO)NC(=O)CNC(=O)[C@@H](CCCCNC(=O)CCCC[C@@H]1SC[C@@H]2NC(=O)N[C@@H]21)NC(=O)[C@H](N)Cc1cn(CCCCCCNC(=O)c2ccc(-c3c4ccc(=N)c(S(=O)(=O)O)c-4oc4c(S(=O)(=O)O)c(N)ccc34)c(C(=O)O)c2)nn1)C(=O)NCC(=O)N[C@H](CO)C(=O)NCC(=O)N[C@H](CCCCNC(=O)CON)C(N)=O | 0.2% |

From ChEMBL document CHEMBL4619705, “Conjugation of peptides to short-acyl-chain ceramides for delivery across mucosal cell barriers” (Bioorg Med Chem Lett, 2020)
